Results on seven compounds are retold here after patent publication US20150342954A1, “2-BENZYL, 3-(PYRIMIDIN-2-YL) SUBSTITUTED PYRAZOLES USEFUL AS SGC STIMULATORS” (IRONWOOD PHARMACEUTICALS, INC., priority 2011, published 2015).

For test [1], the system named is lambs with acute pulmonary hypertension. The conditions noted are these: cited from earlier work; for pulmonary vasodilation / effect on mean arterial pressure / transpulmonary cGMP release / systemic arterial oxygenation: inhaled microparticles, awake lambs, U-46619 infusion; for pulmonary vasodilation: mean pulmonary arterial pressure 35 mm Hg.
In a further test the test system is Thoracic aortic rings. The test is described as follows: Alternative thoracic aortic rings assay (Example 5; original resting tension as 100% inhibition). The conditions noted are these: rat thoracic aortic rings contracted with phenylephrine; for Aortic Ring Percent Relaxation at 1 μM: compound at 1 μM; for Aortic Ring Percent Relaxation at 3 μM: compound at 3 μM; for Aortic Ring Percent Relaxation at 10 μM: compound at 10 μM; for EC50: read-out: Aortic Ring EC50. The procedure: Thoracic aortic rings were dissected from anesthetized (isoflurane) male Sprague-Dawley rats weighing 275-299 g. Tissues were immediately transferred to ice-cold Krebs-Henseleit solution, which had been aerated with 95% 02 and 5% CO2 for 30 minutes. Following removal of connective tissue, aortic sections were cut into 4 rings (˜2 mm each) and suspended on 2 L-shaped hooks, with one hook fixed at the bottom of the tissue bath (Schuler Organ Bath, Harvard Apparatus) and the other connected to a force transducer (F30 Force Transducer, Harvard Apparatus). Baths contained Krebs Henseleit solution (10 mL) heated to 37° C. and aerated with 95% 02 and 5% CO2. Rings were brought to an initial tension of 0.3-0.5 g and gradually raised to a resting tension of 1.0 g over 60 minutes. Rings were rinsed with Krebs Henseleit solution (heated to 37° C. and aerated with 95% 02 and 5% CO2) at 15 minute intervals until a stable baseline was obtained. Rings were considered to be stable after a resting tension of 1.0 g was maintained (for approximately 10 minutes) without need for adjustment. Rings were then contracted with 100 ng/mL phenylephrine by adding 100 μL of a 10 μg/mL phenylephrine stock solution. Tissues achieving a stable contraction were then treated in a cumulative, dose dependent manner with test compounds prepared in dimethylsulfoxide (DMSO). In some cases, tissues were rinsed three times over a 5 minute period with Krebs-Heinseleit's solution (heated to 37° C. and aerated with 95% 02 and 5% CO2), allowed to stabilize at baseline, and then used for characterization of other test articles or DMSO effects. All data were collected using the HSE-ACAD software provided by Harvard Apparatus. […] EC50 values were calculated from concentration-response curves generated with GraphPad Prism Software.
Biological Activity Measurement by the Thoracic Aortic Rings Assay
The biological data for some of a compound of Table I, in comparison with the known compound, BAY 41-2272, as the reference compound, determined by the thoracic aorta ring assay of Example 5 are presented in Table 6 below.

Test [2] has as its target T1, soluble guanylate cyclase (sGC) (Homo sapiens, UniProt Q02108+Q02153).
T1 construct: endogenously expressing soluble guanylate cyclase (sGC); endogenous in cells; host or cells: HEK293
T1 sequence (Q02153 1-619): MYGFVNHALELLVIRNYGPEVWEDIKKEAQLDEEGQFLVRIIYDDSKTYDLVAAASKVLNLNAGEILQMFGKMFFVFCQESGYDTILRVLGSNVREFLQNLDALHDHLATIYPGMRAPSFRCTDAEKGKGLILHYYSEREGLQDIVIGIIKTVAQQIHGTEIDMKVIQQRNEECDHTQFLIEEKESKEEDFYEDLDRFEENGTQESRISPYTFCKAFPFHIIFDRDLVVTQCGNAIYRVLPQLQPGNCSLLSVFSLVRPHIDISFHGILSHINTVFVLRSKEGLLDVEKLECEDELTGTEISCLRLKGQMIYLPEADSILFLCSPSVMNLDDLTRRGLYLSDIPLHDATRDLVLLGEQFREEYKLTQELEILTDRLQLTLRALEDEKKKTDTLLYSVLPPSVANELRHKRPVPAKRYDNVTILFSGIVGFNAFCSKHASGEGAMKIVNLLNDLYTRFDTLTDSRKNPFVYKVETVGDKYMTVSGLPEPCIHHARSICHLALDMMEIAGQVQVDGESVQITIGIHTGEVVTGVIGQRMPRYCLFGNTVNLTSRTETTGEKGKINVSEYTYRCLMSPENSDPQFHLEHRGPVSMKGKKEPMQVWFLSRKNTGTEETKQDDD
T1 sequence (Q02108 1-690): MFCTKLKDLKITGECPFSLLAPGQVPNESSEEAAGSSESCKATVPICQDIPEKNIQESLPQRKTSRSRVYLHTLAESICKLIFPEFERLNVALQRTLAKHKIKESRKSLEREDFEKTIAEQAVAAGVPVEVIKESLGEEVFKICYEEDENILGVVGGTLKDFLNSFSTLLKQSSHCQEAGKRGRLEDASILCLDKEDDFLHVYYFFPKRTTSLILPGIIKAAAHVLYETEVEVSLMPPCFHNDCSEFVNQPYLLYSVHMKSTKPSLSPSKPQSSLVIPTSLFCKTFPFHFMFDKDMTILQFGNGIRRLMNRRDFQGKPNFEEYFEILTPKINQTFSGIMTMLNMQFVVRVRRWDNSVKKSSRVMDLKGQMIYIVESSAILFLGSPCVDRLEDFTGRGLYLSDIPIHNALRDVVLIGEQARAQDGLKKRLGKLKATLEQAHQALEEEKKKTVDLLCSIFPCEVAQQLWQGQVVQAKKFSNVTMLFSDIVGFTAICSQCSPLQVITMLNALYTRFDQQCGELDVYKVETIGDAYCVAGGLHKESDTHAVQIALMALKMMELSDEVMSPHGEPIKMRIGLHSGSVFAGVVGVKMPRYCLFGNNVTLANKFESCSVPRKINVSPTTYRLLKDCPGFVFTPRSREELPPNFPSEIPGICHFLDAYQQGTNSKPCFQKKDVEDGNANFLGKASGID
The test is described as follows: sGC-HEK-cGMP assay (run with SNP incubation). The format is cell-based. The following applies: for Emax: Table 3A, 10 μM SNP, 100% = 30 μM BAY 41-2272 with 10 μM SNP, read-out: HEK assay Emax-unconstrained (Percent); for HEK MEC-10: concentration that would elicit 10% of the Emax in the presence of 10 μM SNP; for HEK MEC-10 / EC50: Table 3D; for EC50: in the presence of 10 μM SNP. The gist of the method:
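HEK293 cells with endogenous sGC were pre-treated 15 min at 37 °C with 0.5 mM IBMX, then exposed to test compound plus sodium nitroprusside for 10 min at 37 °C. Cells were lysed in 0.1 M HCl (4 °C, 30 min), and cGMP was quantified by LC/MS against a standard curve. EC50 values came from concentration-response curves.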

The test system of test [3] is Guinea pig tracheal smooth muscle (GPTSM). Description: Electrical field stimulated guinea pig tracheal smooth muscle in vitro (ex vivo) model of bronchodilation. The conditions noted are these: Cavia porcellus; guinea pig tracheal strips, sub-maximal EFS; 95% CI 0.78-0.94; read-out: IC50, inhibition of EFS-induced tracheal smooth muscle contraction. An excerpt:
Electrical Field Stimulated Guinea Pig Tracheal Smooth Muscle In Vitro (Ex Vivo) Model for the Assessment of Bronchodilation.
It is possible to assess the bronchodilating effects of sGC stimulators by using the system described below. This system allowed us to determine potency, efficacy and duration of action of several sGC stimulators, as well as to assess potential side effects such as blood pressure, or heart rate changes. […]
On each experimental day, a guinea pig was killed by exposure to a rising concentration of CO2 and the trachea removed. […] Tissues were washed with Kreb's buffer and stimulated using the previously determined sub-maximal voltage for 1 hour to establish a stable baseline contraction prior to assessment of compound activity.
A cumulative dose response curve (DRC) to each test substance was then performed and changes in smooth muscle contraction measured. The effect of each test substance in each experiment was expressed as a percentage inhibition of the baseline contraction, normalized to the relevant vehicle controls. […] The data from all three experiments was pooled, the DRC plotted, and the test substance potency and efficacy determined.

Where [4] appears, read: top of concentration-response curve not fitted to 100%.
Where [5] appears, read: top of concentration-response curve not fitted to 100%, read-out: HEK assay EC50-unconstrained.

Where two headings read alike, the source gives them in different places.

Turning to `Nc1nc(-c2nn(Cc3ccccc3F)c3ncccc23)ncc1C1CC1` [BAY 41-2272], in test [1], the pulmonary vasodilation entry is reported as “dose dependent pulmonary vasodilation”, the “effect on mean arterial pressure” value is given as “without significant effect on mean arterial pressure” and the “transpulmonary cGMP release” value is “increased transpulmonary cGMP release”.
Consider `Nc1nc(-c2nn(Cc3ccccc3F)c3ncccc23)nc(N)c1N1CCOCC1` [BAY 41-8543], for which the “magnitude and duration of pulmonary vasodilation induced by iNO” value in test [1] (after inhaling the microparticles, lambs) is given as “augmented”. For the same compound, in test [1], the pulmonary vasodilation result is given as “dose dependent pulmonary vasodilation”, the “effect on mean arterial pressure” value is on record as “without significant effect on mean arterial pressure”, the systemic arterial oxygenation entry is given as “increased systemic arterial oxygenation” and the “transpulmonary cGMP release” value was “increased transpulmonary cGMP release”.
`O=C(O)CCCCN(CCc1ccccc1OCc1ccc(CCc2ccccc2)cc1)Cc1ccc(C(=O)O)cc1` [BAY 58-2667]: in test [1] (inhaled microparticles after intravenous ODQ, lambs), the “pulmonary vasodilation and transpulmonary cGMP release after treatment with ODQ” value is recorded as “greatly enhanced”. In test [1], the pulmonary vasodilation result is “dose dependent pulmonary vasodilation”, the “effect on mean arterial pressure” value is given as “without significant effect on mean arterial pressure”, the systemic arterial oxygenation result is recorded as “increased systemic arterial oxygenation” and the “transpulmonary cGMP release” value is “increased transpulmonary cGMP release”.
As for `Oc1nc(-c2cc(-c3ccon3)n(Cc3cccc(F)c3F)n2)ncc1F` [Compound 1], in the test on Thoracic aortic rings, the “Aortic Ring Percent Relaxation at 1 μM” value is recorded as “F (80 to <100%)”, the “Aortic Ring Percent Relaxation at 3 μM” value is listed as “G (100 to <120%)”, the “Aortic Ring Percent Relaxation at 10 μM” value is “G (100 to <120%)” and the EC50 was less than 2000 nM. Further, the Emax in test [2] (setting [4]) lay within 60 to 80%. In addition, the “HEK MEC-10” value in test [2] is listed as “B (0.01 to <0.1 μM)”. In addition, in test [2] (read-out: HEK assay EC50), the EC50 was less than 20000 nM. For the same compound, the EC50 in test [2] (setting [5]) was 10 to 500 nM.
`CC1(C(=O)Nc2cnc(-c3cc(-c4ccon4)n(Cc4cccc(F)c4F)n3)nc2N)CC1` [Compound 10]: in the test with Thoracic aortic rings, the “Aortic Ring Percent Relaxation at 1 μM” value is reported as “G (100 to <120%)”, the “Aortic Ring Percent Relaxation at 3 μM” value is recorded as “G (100 to <120%)”, the “Aortic Ring Percent Relaxation at 10 μM” value is reported as “G (100 to <120%)” and the EC50 is less than 2000 nM. The Emax in test [2] (setting [4]) lay in the range of 100 to 120%. Further, in test [2], the “HEK MEC-10” value is recorded as “A (0.001 to <0.01 μM)”. The EC50 in test [2] (read-out: HEK assay EC50) was less than 20000 nM. For the same compound, the EC50 in test [2] (setting [5]) was in the range of 10 to 500 nM.
Take `N#CC1(C(=O)Nc2cnc(-c3cc(-c4ncco4)n(Cc4ccccc4F)n3)nc2N)CC1` [Compound 47, N-(4-amino-2-(1-(2-fluorobenzyl)-5-(oxazol-2-yl)-1H-pyrazol-3-yl)pyrimidin-5-yl)-1-cyanocyclopropanecarboxamide]: in the test on Thoracic aortic rings, the “Aortic Ring Percent Relaxation at 1 μM” value is recorded as “E (60 or <80%)”, the “Aortic Ring Percent Relaxation at 3 μM” value was “F (80 to <100%)”, the “Aortic Ring Percent Relaxation at 10 μM” value is “G (100 to <120%)” and the EC50 was less than 2000 nM. Moreover, the maximum response (Emax) in test [2] (setting [4]) is 100 to 120%. The “HEK MEC-10” value in test [2] was “B (0.01 to <0.1 μM)”. The EC50 in test [2] (read-out: HEK assay EC50) is less than 20000 nM. Besides, the EC50 in test [2] (setting [5]) lay within 10 to 500 nM.
Take `CC(C)[N+]1(C)[C@@H]2CC[C@H]1C[C@@H](OC(=O)C(CO)c1ccccc1)C2` (some centres unmarked) [Ipratropium bromide]: the IC50 in test [3] is 0.86 nM.

Usually EC50 stands for the concentration at which the effect is half-maximal. What is called Emax is the size of the effect at its maximum, as opposed to the concentration needed. The term IC50 denotes the concentration needed to halve the response being measured.
